The results in this text go back to patent US4089893A, “2,2,2-Tris(hydroxymethyl)ethylphosponic acid and method for its preparation” (Borg-Warner Corporation, priority 1976, dated 1978).

The series is described as follows: solubility. Format: physicochemical. Conditions: syrup product of Example 2.

Structures are written as SMILES.

Regarding `O=P(O)(O)CC(CO)(CO)CO` [Phosphonic Acid, 3-hydroxy-2,2-bis(hydroxymethyl)propylphosphonic acid], the solubility result was “soluble in water and highly polar organic solvents”.
